Measurements taken from patent US11897867B2, “6-phenyl-4,5-dihydropyridazin-3(2H)-one derivatives as PDE3A and PDE3B inhibitors for treating cancer” (Bayer Aktiengesellschaft, priority 2017, dated 2024).

Assays:
human full length PDE3B = molecular target: T1, human full length PDE3B (Homo sapiens, UniProt Q13370); experiment: PDE3B enzyme inhibition (3H-cAMP Scintillation Proximity Assay); assay type: biochemical; settings: PDE3B cell extract from Sf9 cells, 60 min room temperature; read-out: Target IC50 PDE3B IC50
T1 construct: Sf9 cells overexpressing human full length PDE3B; purchased SB Drug Discovery, UK; host or cells: Sf9 cells (cell extract)
T1 sequence (Q13370 whole entry): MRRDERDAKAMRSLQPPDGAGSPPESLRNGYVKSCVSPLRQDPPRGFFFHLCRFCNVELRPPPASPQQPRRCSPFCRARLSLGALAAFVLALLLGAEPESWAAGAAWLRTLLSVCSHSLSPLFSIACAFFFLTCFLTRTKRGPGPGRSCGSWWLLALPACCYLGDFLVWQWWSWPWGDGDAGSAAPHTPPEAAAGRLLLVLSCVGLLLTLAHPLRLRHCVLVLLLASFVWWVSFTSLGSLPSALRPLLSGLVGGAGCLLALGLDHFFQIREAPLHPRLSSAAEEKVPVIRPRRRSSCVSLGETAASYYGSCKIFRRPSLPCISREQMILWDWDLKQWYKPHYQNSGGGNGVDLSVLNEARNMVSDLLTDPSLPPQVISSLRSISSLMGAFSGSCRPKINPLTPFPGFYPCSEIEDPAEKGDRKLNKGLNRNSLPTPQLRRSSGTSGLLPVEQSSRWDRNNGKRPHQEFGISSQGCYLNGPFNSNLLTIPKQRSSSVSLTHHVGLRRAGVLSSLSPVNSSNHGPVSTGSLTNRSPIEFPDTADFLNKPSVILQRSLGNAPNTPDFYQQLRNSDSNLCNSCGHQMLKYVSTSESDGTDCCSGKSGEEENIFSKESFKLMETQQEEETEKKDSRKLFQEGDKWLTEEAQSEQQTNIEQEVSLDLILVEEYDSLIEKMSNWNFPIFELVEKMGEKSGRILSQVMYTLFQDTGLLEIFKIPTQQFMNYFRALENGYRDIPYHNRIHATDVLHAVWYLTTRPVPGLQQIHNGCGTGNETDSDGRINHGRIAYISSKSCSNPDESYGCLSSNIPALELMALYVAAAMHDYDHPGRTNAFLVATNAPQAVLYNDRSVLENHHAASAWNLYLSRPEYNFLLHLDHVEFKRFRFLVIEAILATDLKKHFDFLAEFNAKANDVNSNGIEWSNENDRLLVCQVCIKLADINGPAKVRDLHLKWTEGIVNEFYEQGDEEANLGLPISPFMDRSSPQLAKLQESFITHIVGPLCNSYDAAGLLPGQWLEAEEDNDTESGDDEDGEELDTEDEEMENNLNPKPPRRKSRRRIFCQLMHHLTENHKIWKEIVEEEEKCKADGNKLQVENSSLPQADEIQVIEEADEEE
Protocol: The commercially available 3H-cAMP Scintillation Proximity Assay (SPA, Perkin Elmer) system was used for enzyme inhibition studies. For the determination of the in vitro effect of test substances on the PDE3B reactions 2 μl of the respective test compound solution in DMSO (serial dilutions) were placed in wells of microtiter plates (Isoplate-96/200W; Perkin Elmer). 50 μl of a dilution of PDE3B cell extract from Sf9 cells overexpressing human full length PDE3B (SB Drug Discovery, UK) in buffer A (50 mM Tris/HCl pH 7.5, 8.3 mM MgCl2, 1.7 mM EDTA, 0.2% BSA) was added. The dilution of the PDE3B cell extract was chosen such that the reaction kinetics was linear and less than 70% of the substrate was consumed (typical dilution 1:6000). The reaction was started by addition of 50 μl (0.025 μCi) of 1:2000 in buffer A w/o BSA diluted substrate [8-3H] adenosine 3′,5′-cyclic phosphate (1 μCi/μl; Perkin Elmer). After incubation at room temperature for 60 min, the reaction was stopped by addition of 25 μl of a suspension containing 18 mg/ml yttrium scintillation proximity beads (Perkin Elmer) in water. The microtiter plates were sealed and measured in a Microbeta scintillation counter (PerkinElmer Wallac). IC50 values were determined from sigmoidal curves by plotting percentage PDE3B activity vs log compound concentration.

SK-MEL-3 (melanoma) = experiment: Cell proliferation measurement (Cell Titer Glo), SK-MEL-3; assay type: cell-based; settings: Homo sapiens, SK-MEL3, SK-MEL-3 cells, 72 h treatment, read-out: Anti-proliferation IC50 SK-MEL-3 (melanoma)
Protocol: (§1) The antiproliferative activity of the compounds of the general formula (I) was examined in vitro in human cancer cells. For this purpose, 1000 cells (or 500 HeLa cells) were plated in 384-well plates with appropriate growth medium and incubated at 37° C. overnight. After 24 h, the cells on the test plate were treated with the compounds of the general formula (I) as and incubated at 37° C. for 72 h. The compounds were added to the cells by means of an HP D300 digital dispenser in a 10 (or more)-step dilution series. As control, the cells were treated with vehicle (DMSO at 0.3% final concentration). After 72 h, the cells were treated with 20 μl/well of 50% CTG solution in PBS (Promega Cell Titer Glo (catalogue #G755B and G756B)) and incubated at room temperature for 10 min, and luminescence was measured by means of a VICTOR V (Perkin Elmer), in order to determine cell viability at the end of treatment. The percentage effect on cell growth and the IC50 derived therefrom were determined for each test substance using the values from untreated wells (=percent viability). The IC50 values were calculated using a 4-parameter fit.

human full length PDE3A = molecular target: T2, human full length PDE3A (Homo sapiens, UniProt Q14432); experiment: PDE3A enzyme inhibition (3H-cAMP Scintillation Proximity Assay); assay type: biochemical; settings: PDE3A cell extract from Sf9 cells, 60 min room temperature; read-out: Target IC50 PDE3A IC50
T2 construct: Sf9 cells overexpressing human full length PDE3A; purchased SB Drug Discovery, UK; host or cells: Sf9 cells (cell extract)
T2 sequence (Q14432 whole entry): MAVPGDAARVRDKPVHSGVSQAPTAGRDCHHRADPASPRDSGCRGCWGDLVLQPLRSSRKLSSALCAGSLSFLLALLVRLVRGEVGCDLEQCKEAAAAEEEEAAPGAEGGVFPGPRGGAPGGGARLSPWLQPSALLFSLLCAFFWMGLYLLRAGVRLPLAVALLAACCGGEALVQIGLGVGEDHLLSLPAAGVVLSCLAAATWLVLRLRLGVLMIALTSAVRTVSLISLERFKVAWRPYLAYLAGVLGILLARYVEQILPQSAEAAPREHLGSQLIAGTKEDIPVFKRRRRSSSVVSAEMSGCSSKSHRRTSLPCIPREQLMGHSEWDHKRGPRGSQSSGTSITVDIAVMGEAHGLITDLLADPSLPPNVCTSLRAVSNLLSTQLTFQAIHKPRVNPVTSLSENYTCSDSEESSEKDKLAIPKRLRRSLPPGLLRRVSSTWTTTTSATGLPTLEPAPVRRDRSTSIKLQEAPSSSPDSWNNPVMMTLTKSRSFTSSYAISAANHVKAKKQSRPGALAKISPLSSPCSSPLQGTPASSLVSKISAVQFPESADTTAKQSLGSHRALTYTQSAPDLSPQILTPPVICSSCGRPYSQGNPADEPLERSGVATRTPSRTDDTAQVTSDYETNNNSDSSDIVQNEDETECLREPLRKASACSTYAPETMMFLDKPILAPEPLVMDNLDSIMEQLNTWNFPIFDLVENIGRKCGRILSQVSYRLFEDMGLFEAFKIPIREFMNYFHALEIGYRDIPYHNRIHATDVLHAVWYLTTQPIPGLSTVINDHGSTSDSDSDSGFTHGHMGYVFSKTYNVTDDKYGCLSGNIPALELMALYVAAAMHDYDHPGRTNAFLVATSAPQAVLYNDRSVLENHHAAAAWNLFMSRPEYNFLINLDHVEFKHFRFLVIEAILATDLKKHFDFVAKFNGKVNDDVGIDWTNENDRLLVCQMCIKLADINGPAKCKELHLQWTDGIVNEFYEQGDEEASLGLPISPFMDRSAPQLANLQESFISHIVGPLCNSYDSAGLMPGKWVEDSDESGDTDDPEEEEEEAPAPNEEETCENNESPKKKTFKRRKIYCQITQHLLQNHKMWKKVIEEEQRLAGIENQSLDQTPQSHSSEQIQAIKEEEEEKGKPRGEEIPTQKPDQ
Protocol: The commercially available 3H-cAMP Scintillation Proximity Assay (SPA, Perkin Elmer) system was used for enzyme inhibition studies. For the determination of the in vitro effect of test substances on the PDE3A reactions 2 μl of the respective test compound solution in DMSO (serial dilutions) were is placed in wells of microtiter plates (Isoplate-96/200W; Perkin Elmer). 50 μl of a dilution of PDE3A cell extract from Sf9 cells overexpressing human full length PDE3A (SB Drug Discovery, UK) in buffer A (50 mM Tris/HCl pH 7.5, 8.3 mM MgCl2, 1.7 mM EDTA, 0.2% BSA) was added. The dilution of the PDE3A cell extract was chosen such that the reaction kinetics was linear and less than 70% of the substrate was consumed (typical dilution 1:5000). The reaction was started by addition of 50 μl (0.025 μCi) of 1:2000 in buffer A w/o BSA diluted substrate [8-3H] adenosine 3′,5′-cyclic phosphate (1 μCi/μl; Perkin Elmer). After incubation at room temperature for 60 min, the reaction was stopped by addition of 25 μl of a suspension containing 18 mg/ml yttrium scintillation proximity beads (Perkin Elmer) in water. The microtiter plates were sealed and measured in a Microbeta scintillation counter (PerkinElmer Wallac). IC50 values were determined from sigmoidal curves by plotting percentage PDE3A activity vs log compound concentration.

[1] = system: HeLa cells (cervical cancer); experiment: Cell proliferation measurement (Cell Titer Glo), HeLa; assay type: cell-based; settings: Homo sapiens, 72 h treatment, read-out: Anti-proliferation IC50 HeLa (Cervical cancer)
Protocol: as §1

Compound	IC50 (human full length PDE3B)	IC50 (SK-MEL-3 (melanoma))	IC50 (human full length PDE3A)	IC50 [1]
COc1ccc(C2=NNC(=O)CC2)cc1Cl [Example 10, 6-(3-Chloro-4-methoxyphenyl)-4,5-dihydropyridazin-3(2H)-one]	110 nM	40.2 nM	110 nM	31.8 nM
O=C1CCC(c2cc(F)c(N3CCC(F)(F)CC3)c(F)c2)=NN1 [Example 12, 6-[4-(4,4-Difluoropiperidin-1-yl)-3,5-difluorophenyl]-4,5-dihydropyridazin-3(2H)-one]	62 nM	11.4 nM	110 nM	5.48 nM
N#Cc1cc(C2=NNC(=O)CC2)ccc1N1CCOCC1 [Example 15, 2-(Morpholin-4-yl)-5-(6-oxo-1,4,5,6-tetrahydropyridazin-3-yl)benzonitrile]	77 nM	69.5 nM	110 nM	44.8 nM
O=C1CCC(c2cc(F)c(N3CCCCC3)c(F)c2)=NN1 [Example 16, 6-[3,5-Difluoro-4-(piperidin-1-yl)phenyl]-4,5-dihydropyridazin-3(2H)-one]	128 nM	9.8 nM	405 nM	4.86 nM
CC1C2CC2CN1c1c(F)cc(C2=NNC(=O)CC2)cc1F (stereo not shown) [Example 17, 6-{3,5-Difluoro-4-[2-methyl-3-azabicyclo[3.1.0]hex-3-yl]phenyl}-4,5-dihydropyridazin-3(2H)-one]	89 nM	2.99 nM	200 nM	1.29 nM
CCNc1ccc(C2=NNC(=O)CC2)cc1C(F)(F)F [Example 18, 6-[4-(Ethylamino)-3-(trifluoromethyl)phenyl]-4,5-dihydropyridazin-3(2H)-one]	73 nM	10.5 nM	66 nM	5.39 nM
O=C1CCC(c2ccc(N3CC(F)(F)C3)c(C(F)(F)F)c2)=NN1 [Example 19, 6-[4-(3,3-Difluoroazetidin-1-yl)-3-(trifluoromethyl)phenyl]-4,5-dihydropyridazin-3(2H)-one]	210 nM	10.4 nM	210 nM	5.76 nM
CC1CCCN1c1ccc(C2=NNC(=O)CC2)cc1C(F)(F)F (stereo not shown) [Example 20, 6-{4-[2-Methylpyrrolidin-1-yl]-3-(trifluoromethyl)phenyl}-4,5-dihydropyridazin-3(2H)-one]	160 nM	47.7 nM	220 nM	33.5 nM
O=C1CCC(c2ccc(N3CC4CC(C3)C4(F)F)c(C(F)(F)F)c2)=NN1 [Example 21, 6-[4-(6,6-Difluoro-3-azabicyclo[3.1.1]hept-3-yl)-3-(trifluoromethyl)phenyl]-4,5-dihydropyridazin-3(2H)-one]	50 nM	5.82 nM	82 nM	2.87 nM
O=C1CCC(c2ccc(N3CC(O)C3)c(C(F)(F)F)c2)=NN1 [Example 24, 6-[4-(3-Hydroxyazetidin-1-yl)-3-(trifluoromethyl)phenyl]-4,5-dihydropyridazin-3(2H)-one]	300 nM	15 nM	350 nM	9.97 nM
O=C1CCC(c2ccc(N3CCOCC3)c(F)c2)=NN1 [Example 25, 6-[3-Fluoro-4-(morpholin-4-yl)phenyl]-4,5-dihydropyridazin-3(2H)-one]	160 nM	19.9 nM	210 nM	6.19 nM

The next lines start with the values.

IC50 (human full length PDE3B)	IC50 (SK-MEL-3 (melanoma))	IC50 (human full length PDE3A)	IC50 [1]	Compound
290 nM	> 100 nM	470 nM	30.9 nM	O=C1CCC(c2ccc(C3=CCOCC3)cc2)=NN1 [Example 1, 6-[4-(3,6-Dihydro-2H-pyran-4-yl)phenyl]-4,5-dihydropyridazin-3(2H)-one]
67 nM	14.5 nM	65 nM	5.72 nM	Cc1cc(C2=NNC(=O)CC2)ccc1-c1cccnc1 [Example 2, 6-[3-Methyl-4-(pyridin-3-yl)phenyl]-4,5-dihydropyridazin-3(2H)-one]
160 nM	22.8 nM	420 nM	12.5 nM	Cc1cc(F)ccc1-c1ccc(C2=NNC(=O)CC2)cc1C [Example 4, 6-(4′-Fluoro-2,2′-dimethylbiphenyl-4-yl)-4,5-dihydropyridazin-3(2H)-one]
39 nM	65.7 nM	120 nM	21.3 nM	Cc1cc(C2=NNC(=O)CC2)ccc1-c1ccncc1 [Example 5, 6-[3-Methyl-4-(pyridin-4-yl)phenyl]-4,5-dihydropyridazin-3(2H)-one]
87 nM	89.3 nM	72 nM	53.3 nM	Cc1cc(C2=NNC(=O)CC2)ccc1-c1cn[nH]c1 [Example 6, 6-[3-Methyl-4-(1H-pyrazol-4-yl)phenyl]-4,5-dihydropyridazin-3(2H)-one]
35 nM	> 100 nM	200 nM	55.6 nM	Cc1cc(C2=NNC(=O)CC2)ccc1C1=CCOCC1 [Example 7, 6-[4-(3,6-Dihydro-2H-pyran-4-yl)-3-methylphenyl]-4,5-dihydropyridazin-3(2H)-one]
49 nM	5.01 nM	90 nM	1.27 nM	O=C1CCC(c2ccc(-c3ccc(F)cc3)c(F)c2)=NN1 [Example 8, 6-(2,4′-Difluorobiphenyl-4-yl)-4,5-dihydropyridazin-3(2H)-one]
35 nM	2.12 nM	90 nM	1.55 nM	Nc1cc(-c2ccc(C3=NNC(=O)CC3)cc2F)ccc1Cl [Example 9, 6-(3′-Amino-4′-chloro-2-fluorobiphenyl-4-yl)-4,5-dihydropyridazin-3(2H)-one]
710 nM	70.3 nM	660 nM	41.4 nM	Cc1cc(C2=NNC(=O)CC2)ccc1Cl [Example 11, 6-(4-Chloro-3-methylphenyl)-4,5-dihydropyridazin-3(2H)-one]
470 nM	67.6 nM	450 nM	58 nM	CNc1ccc(C2=NNC(=O)CC2)cc1C(F)(F)F [Example 23, 6-[4-(Methylamino)-3-(trifluoromethyl)phenyl]-4,5-dihydropyridazin-3(2H)-one]
90 nM	3.6 nM	93 nM	2.02 nM	Cc1cc(F)ccc1-c1ccc(C2=NNC(=O)CC2)cc1 [Example 26, 6-(4′-Fluoro-2′-methylbiphenyl-4-yl)-4,5-dihydropyridazin-3(2H)-one]
140 nM	6.1 nM	130 nM	3.36 nM	CC(C)=Cc1ccc(C2=NNC(=O)CC2)cc1F [Example 27, 6-[3-Fluoro-4-(2-methylprop-1-en-1-yl)phenyl]-4,5-dihydropyridazin-3(2H)-one]
	37.6 nM		19.5 nM	O=C1CCC(c2ccc(-c3ccccc3C(F)(F)F)c(F)c2)=NN1 [Example 61, 6-[2-fluoro-2′-(trifluoromethyl)[1,1′-biphenyl]-4-yl]-4,5-dihydropyridazin-3(2H)-one]
